How the values were obtained:
Solubility in methanol = format: physicochemical
Excerpt: The octasilane-POSS, which was insoluble in methanol, was rendered soluble in methanol after the derivatization to Q-POSS.

[1] = test system: Escherichia coli ATCC 12435; assay: Antimicrobial activity of Q-POSS in solution, bacterial log reduction; format: cell-based; details: equal concentration 9.63×10^−5 moles/ml; 2 hrs at room temperature
Protocol: Antimicrobial characterization. The antimicrobial activity of the Q-POSS in methanol was determined as follows. Stocks of Escherichia coli ATCC 12435 and Staphylococcus aureus ATCC 25923 were maintained weekly at 4° C. on LBA and TSB, respectively. Broth cultures of E. coli (LBB) and S. aureus (TSB) were prepared by inoculating one colony into 10 ml of broth and incubating at 37° C. with shaking. Overnight cultures were pelleted via centrifugation (10 min at 4500 rpm), washed twice in 0.9% NaCl, and re-suspended to a 0.5 McFarland turbidity standard (˜10^8 cells/ml). Q-POSS (2 μL) was added to the bacterial suspension (1 mL) previously dispensed into a well of a sterile 24-well polystyrene plate. The plates were then placed on an orbital shaker and allowed to incubate for 2 hrs at room temperature. Each Q-POSS/bacterial suspension (0.1 mL of each) was immediately transferred to D/E neutralization medium (0.9 ml) in a 1.5 mL microcentrifuge tube, and serially diluted (1:10) in D/E medium. […] After 24 hr of incubation, the plates were removed from the incubator and photographed with a digital camera to quantify bacterial growth in solution. […] Methanol was also evaluated for antimicrobial activity as it was used to solublize the Q-POSS for biological evaluations. […]

E. coli = assay: Minimum inhibitory concentration (MIC); format: cell-based; details: overnight incubation 37° C., absorbance at 600 nm
Protocol: The minimum inhibitory concentration (MIC), of Q-POSS compounds and non-Q-POSS compounds were compared and the results are shown in Table 4. As used herein, MIC refers to the lowest concentration of an antimicrobial agent that will inhibit the visible growth of a microorganism after overnight incubation. The procedure was carried out by serially diluting the antimicrobial agent in growth medium and adding the appropriate microorganism. Three 200 μl aliquots of each dilution (inoculated with the appropriate microorganism) were transferred to a 96-well plate and allowed to incubate overnight at the appropriate temperature (37° C. for biomedical microorganisms such as E. coli). The plates were then measured for absorbance at 600 nm to determine microbial growth.

Row | Compound | solubility in methanol (Solubility in methanol) | Log Reduction against E. coli [1] | MIC against E. coli (E. coli) [µg/mL]
1 | C[SiH](C)O[Si]12O[Si]3(O[SiH](C)C)O[Si]4(O[SiH](C)C)O[Si](O[SiH](C)C)(O1)O[Si]1(O[SiH](C)C)O[Si](O[SiH](C)C)(O2)O[Si](O[SiH](C)C)(O3)O[Si](O[SiH](C)C)(O4)O1 [octasilane-POSS, Octasilane-POSS] | insoluble | – | –
2 | Benzalkonium chloride | – | 7.0 | 50
